These molecules were tested on STAT6 activation (assay: STAT6 activation inhibition test (IL-4-induced alkaline phosphatase STAT6 reporter gene assay)). Settings: Homo sapiens, HEK293; concentration giving 50% suppression of alkaline phosphatase activity induced by IL-4 (1 ng/mL), 16 hours; 293 cells stably expressing STAT6 gene and STAT6 reporter gene.
Type: cell-based, human
Experimental: The inhibitory activity on STAT6 activation of the compound according to present invention was evaluated according to the following test.
1) Construction of the STAT6 Reporter Gene
The oligonucleotide of SEQ ID: 1 resuting from three STAT6 binding regions of the human immunoglobulin germline ε gene promoter linked togeter, and the complementary strand thereof were mixed, and after thermal denaturation and annealing, the 5′ and the 3′ ends were respectively cut with the restriction enzymes Kpn I (TaKaRa Shuzo Code No. 1068A) and Xba I (TaKaRa ShuzoCode No. 1093A), and the resulting fragment was cloned into the Kpn I/Xba I site of the pUG-BGH-PLAP vector (described in Molecular Pharmacology, 49: 860–873 1996). In addition, the TK promoter region of the herpesvirus for inducing general transcription factors was cloned into the Xba I/Hind III (TaKaRa ShuzoCode No. 1060A) site of the pUG-BGH-PLAP vector. Then, to collect a stable expression cell strain, the neomycin resistance gene, that is a PGK-neo expression cassette, was incorporated into the Sal I (TaKaRa Shuzo, Code No. 1080A) site of this vector. Cloning of the TK promoter and the PGK-neo expression cassette was carried out according to Molecular Pharmacology, 49: 860–873 1996.
2) Construction of the STAT6 Expression Vector
Using the oligonucleotide of SEQ ID: 2 containing the initiation codon of the STAT6 gene and the oligonucleotide of SEQ ID: 3 containing the stop codon, Total RNA was prepared from human peripheral blood cells with the RNeasy Mini kit (OIAGEN, Code No. 74104). Thereafter, a reverse transcription reaction was carried out with the Takara RNA LA PCR kit (TaKaRa Shuzo, Code No. RR012A) to prepare cDNA, and using the primers of SEQ ID: 2 and 3, a PCR reaction was carried out, to amplify the STAT6 gene.
PCR product was digested with EcoR I (TaKaRa Shuzo, Code No. 1040A) and Xho I (TaKaRa Shuzo, 1094A), thereafter, the digested fragment was isolated on an agarose gel. The isolated fragment was incorporated into the vector fragment derived from the EcoR I/Xho I digestion of the pcDNA3.1 (+) (invtrogen, Code No. U790-20) vector.
3) Transformation and Preparation of a Stable Expression Cell Strain
In a Falcon 6-well plate for tissue culture (Becton Dickinson, Code No. 35-3046), 3.0×10^5 of 293 cells derived from human embryo kidney (American Type Culture Collection) were distributed and cultured overnight. The STAT6 reporter gene (1.5 μg), the STAT6 gene (1.5 μg) that were prepared and lipofectamine (GIBCO BRL, Code No. 18324-012) (20 μL) were mixed in OPTI-MEM culture medium (GIBCO BRL, Code No. 31985-070) (0.3 mL), and allowed to stand at room temperature for 20 minutes. Thereafter, the OPTI-MEM culture medium (1.2 mL) was further added, OPTI-MEM culture medium not containing fetal calf serum was added to washed cells, which were cultured for 2 hours. A culture medium (1.5 mL) containing fetal calf serum was added, and the cells were cultured for 19 more hours. The culture was continued by exchanging the culture medium and adding Geneticin (SIGMA, Code No. G-5013) so as to obtain 1 mg/mL, and cells with drug tolerance were selected. The selected drug tolerant cells were suspended in a culture medium containing 1 mg/mL of Geneticin, and distributed in a 96-well microplate (Becton Dickinson, Code No. 35-3072) so as to obtain 0.5 cells/well to carrry out cloning, and the clones expressing alkaline phosphatase in response to IL-4 were collected.
4) STAT6 Activation Inhibition Test
Cells stably expressing the STAT6 gene and the STAT6 reporter gene, and expressing alkaline phosphatase in response to IL-4 were distributed in a 96-well microplate (Becton Dickinson, Code No. 35-3072) so as to obtain 5000 cells/180 μL/well, and cultured overnight. […]

`CN(CC(O)c1ccc(F)cc1)S(=O)(=O)c1csc2c1CCC/C2=N/OC(N)=O` (centres unmarked) [Example 87, (7Z)-7-{[(Aminocarbonyl)oxy]imino}-3-{[[2-(4-fluorophenyl)-2-hydroxyethyl](methyl)amino]sulfonyl}-4,5,6,7-tetrahydro-1-benzothiophene] and `CN(CC(O)c1ccc(F)cc1)S(=O)(=O)c1csc2c1CCC/C2=N/OC(=O)C(C)(C)C` (centres unmarked) [Example 88, (7Z)-7-{[(2,2-Dimethylpropanoyl)oxy]imino}-N-[2-(4-fluorophenyl)-2-hydroxyethyl]-N-methyl-4,5,6,7-tetrahydro-1-benzothiophene-3-sulfonamide] are within 1.5-fold of each other in IC50: 0.5 nM for the first, 0.42 nM for the second.

Work on `CN(CCc1ccccc1)C(=O)c1csc2c1CCC/C2=N/O` [Example 110, (7Z)-7-Hydroxyimino-4,5,6,7-tetrahydrobenzo[b]thiophene-3-carboxylic acid methylphenethyl amide] yielded an IC50 of 0.32 nM.

Same assay, conditions: concentration giving 50% suppression of alkaline phosphatase activity induced by IL-4 (1 ng/mL), 16 hours; 293 cells stably expressing STAT6 gene and STAT6 reporter gene

Going from `CCc1cccc(NC(=O)O/N=C2/CCCc3c(S(=O)(=O)N(C)CC(O)c4ccc(F)cc4)csc32)c1` (centres unmarked) [Example 66, (7Z)-7-({[(3-Ethylanilino)carbonyl]oxo}imino)-3-{[[2-(4-fluorophenyl)-2-hydroxyethyl](methyl)amino]sulfonyl}-4,5,6,7-tetrahydro-1-benzothiophene] to `CCOc1ccc(NC(=O)O/N=C2/CCCc3c(S(=O)(=O)N(C)CC(O)c4ccc(F)cc4)csc32)cc1` (centres unmarked) [Example 73, (7Z)-7-({[(4-Ethoxyanilino)carbonyl]oxo}imino)-3-{[[2-(4-fluoro-phenyl)-2-hydroxyethyl](methyl)amino]sulfonyl}-4,5,6,7-tetrahydro-1-benzothiophene], the IC50 falls from 16 nM to 0.9 nM (18-fold). The second is the more potent here.

First: CCNC(=O)O/N=C1/CCCc2c(S(=O)(=O)N(C)CC(O)c3ccc(F)cc3)csc21 (centres unmarked) [Example 83, (7z)-7-({[(Ethylamino)carbonyl]oxo}imino)-3-{[[2-(4-fluorophenyl)-2-hydroxyethyl](methyl)amino]sulfonyl}-4,5,6,7-tetrahydro-1-benzothiophene]
Second: CN(CCc1ccc(F)cc1)C(=O)c1csc2c1CCC/C2=N/O [Example 124, (7Z)-7-Hydroxyimino-4,5,6,7-tetrahydrobenzo[b]thiophene-3-carboxylic acid[2-(4-fluorophenyl)ethyl]-methyl-amide]
The IC50 of the first is 230-fold higher: 34 nM for the first, 0.15 nM for the second.

With “(7Z)-N-{1-(4-Fluorophenyl)-2-[(7-hydroxyimino-4,5,6,7-tetrahydrobe nzo[b]-thiophene-3-sulfonyl)methylamino]ethyl}acetamide [Example 23]” the IC50 was 9.5 nM.
